Source: US20070082818A1, “Agrochemical compositions” (priority 2003, published 2007)
Structures can show the parent of a compound that is named as a salt.

What was measured:
[1] = test system: eight representative weed species; experiment: Bioperformance enhancement of paraquat by amine/amide adjuvants, moving track sprayer; type: in vivo; settings: paraquat dichloride spray at 10, 20 and 40 g/ha paraquat ion, 200 l/ha; adjuvant 0.5% by weight of spray volume (aminoethylpiperazine 0.625%); 7 days after treatment; mean over all species and combined rates; 0% no herbicidal effect, 100% complete kill
Procedure: The bioperformance enhancement of paraquat in the presence of amines or amides of the present invention was evaluated. An aqueous formulation of paraquat dichloride containing 0.5% by weight of the quinuclidine (based on the weight of the amine salt), N-(aminopropyl) morphiline (based on the weight of the parent amine) or 1-(2-hydroxethyl-2-imidazolidinone) (based on the weight of the amide), all based on total spray volume was applied using a moving track sprayer to eight representative weed species at 10, 20 and 40 g/ha (based on paraquat ion). The spray volume was equivalent to 200 l/ha. For aminoethylpiperazine the formulation contained 0.625% by weight of the amine (based on the parent amine).
The results are compared with an equivalent formulation containing only paraquat chloride.

[2] = type: physicochemical
From the text: It is to be understood that the term physical incompatibility in relation to adjuvants used in bipyridyl compositions indicates either gross separation of one or more components of the composition which may or may not be accompanied by a significant change in formulation rheology or bulk homogeneity. It is not necessarily essential that the composition is fully homogeneous in a strict physical sense provided that the composition is substantially homogeneous in the bulk. Thus a slight separation of a second phase may be acceptable provided that the separated phase remains fully dispersed in the bulk. […] This is obviously undesirable for a number of reasons. The term physical compatibility indicates the reverse of physical incompatibility as defined above.

[3] = test system: drilled broad leaved & grass weeds; experiment: Field trials of 200 g/l paraquat compositions applied as foliar spray; type: in vivo; settings: 39% and 51% of the conventional adjuvant system substituted
Procedure: Field Trials were conducted at 8 locations where the target plants were a range of drilled broad leaved & grass weeds. The 200 g/l paraquat compositions were applied as a foliar spray at application rates of 75, 150 & 300 g/ha paraquat ion, and at an application volume of 200 l/ha at a weed growth stage when the grasses were tillering & the broadleaved weeds were branching.

[4] = Physical compatibility of formulations by microscopic examination; type: physicochemical; settings: corresponding formulations with about 120 g/l magnesium sulphate heptahydrate

Molecule	Mean Activity (%) [1]	also measured
O=C1NCCN1CCO [1-(2-hydroxethyl-2-imidazolidinone)]	66%	–
NCCN1CCNCC1 [Aminoethylpiperazine]	72%	–
NCCCN1CCOCC1 [N-(Aminopropyl) morphiline]	65%	–
C1CN2CCC1CC2 [Quinuclidine as hydrochloride salt, Quinuclidine]	68%	–
CCCCCCCCOC(=O)CC(C(=O)OCCCCCCCC)S(=O)(=O)O.[Na] (centres unmarked) [sodium dioctyl sulfosuccinate, reference compound]	–	Adjuvant level at which physical separation / two phases were observed ([2]; about 120 g/l paraquat ion, about 80 g/l diquat ion, alginate, about 120 g/l magnesium sulphate heptahydrate): below 10 g/l
aminoethylpiperazine [AEP]	–	Effect on biological performance of substituting conventional adjuvant system by AEP [3]: no deleterious effect; Adjuvant loading compatible with compositions of WO 02/076212 ([2]; actual amine): ≥ 40 g/L; Physical compatibility when conventional surfactants were replaced by AEP [4]: significant improvement
